For the assay, the target named is T1, Human TRPV3 (Homo sapiens, UniProt Q8NET8).
T1 construct: expressed in transfected cells; host or cells: CHO cells (G-418 selection)
T1 sequence (Q8NET8 1-790): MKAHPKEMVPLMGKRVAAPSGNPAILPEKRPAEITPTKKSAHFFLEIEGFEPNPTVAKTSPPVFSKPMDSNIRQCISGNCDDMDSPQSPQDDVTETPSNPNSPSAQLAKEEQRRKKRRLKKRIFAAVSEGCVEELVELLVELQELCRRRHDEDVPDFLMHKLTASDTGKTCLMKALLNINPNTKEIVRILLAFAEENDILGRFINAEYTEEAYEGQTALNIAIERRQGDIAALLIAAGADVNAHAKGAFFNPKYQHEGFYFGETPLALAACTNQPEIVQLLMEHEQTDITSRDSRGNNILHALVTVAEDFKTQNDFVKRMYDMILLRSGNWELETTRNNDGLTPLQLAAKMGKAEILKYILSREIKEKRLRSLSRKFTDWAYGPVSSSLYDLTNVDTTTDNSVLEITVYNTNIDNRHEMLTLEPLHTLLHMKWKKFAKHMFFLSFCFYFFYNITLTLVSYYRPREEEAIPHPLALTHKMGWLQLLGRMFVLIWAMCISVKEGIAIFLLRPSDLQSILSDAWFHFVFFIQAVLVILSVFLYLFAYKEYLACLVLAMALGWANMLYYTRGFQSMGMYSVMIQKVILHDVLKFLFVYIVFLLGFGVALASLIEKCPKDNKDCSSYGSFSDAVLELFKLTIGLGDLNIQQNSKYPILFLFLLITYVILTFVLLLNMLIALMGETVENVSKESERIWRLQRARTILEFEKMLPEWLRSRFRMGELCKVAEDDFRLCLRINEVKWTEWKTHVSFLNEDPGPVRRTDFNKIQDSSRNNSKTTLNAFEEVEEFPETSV
The experiment in a line: Screening for TRPV3 antagonist using the 45Calcium uptake assay (inhibition of 2-APB induced cellular uptake of radioactive calcium). Format: cell-based. Conditions: human TRPV3 expressing CHO cells, 2-APB 500 μM; for inhibition at 1 µM / Percentage inhibition at 1.0 μM: 1.0 μM test compound; for inhibition at 1 µM: read-out: Percentage inhibition at 1.0 μM; for inhibition at 10 µM / Percentage inhibition at 10.0 μM: 10.0 μM test compound; for inhibition at 10 µM: read-out: Percentage inhibition at 10.0 μM; for IC50: class symbols. In outline: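 CHO cells stably expressing human TRPV3, preincubated 10 min with test compound, then 2-APB (500 μM final) plus 5 μCi/ml 45Ca2+ for 4 min in DMEM/F-12 with 1.8 mM CaCl2; 0.5% DMSO final. Lysate radioactivity by scintillation counting. IC50 by nonlinear regression of % maximal response; % inhibition at 1.0 and 10.0 μM.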

A word on the inhibition: it is the share of the control response that was lost under treatment. As a reminder, the IC50 is the concentration that inhibits the measured activity by half.

For the molecule `COc1cccc(/C=C/c2nc3scc(C)n3c(=O)c2-c2ccc(OC(F)(F)F)cc2)c1OCC1CC1` [Example 76, 7-[(E)-2-(2-Cyclopropylmethoxy-3-methoxyphenyl)-1-ethenyl]-3-methyl-6-[4-(trifluoromethoxy)phenyl]-5H-[1,3]thiazolo[3,2-a]pyrimidin-5-one], the inhibition at 1 µM was 61.9% and the inhibition at 10 µM is 79.3%.
On to `COc1cccc(/C=C/c2nc3sccn3c(=O)c2-c2ccc(OC(F)(F)F)cc2)c1OC1CCCCC1` [Example 72, 7-[(E)-2-(2-Cyclohexyloxy-3-methoxyphenyl)-1-ethenyl]-6-[4-(trifluoromethoxy)phenyl]-5H-[1,3]thiazolo[3,2-a]pyrimidin-5-one], for which the inhibition at 1 µM was found to be 58.1%, the inhibition at 10 µM was 82.1% and the IC50 was in the range of 250 to 500 nM.
For `COc1cccc(/C=C/c2nc3sccn3c(=O)c2-c2ccc(OC(F)(F)F)cc2)c1OCC1CC1` [Example 58, 7-{(E)-2-[2-(Cyclopropylmethoxy)-3-methoxyphenyl}-1-ethenyl]-6-(4-trifluoromethoxyphenyl)-5H-[1,3]thiazolo[3,2-a]pyrimidin-5-one] the same measures were 92.8%, 95.9% and less than 250 nM.
The like results for `COc1cccc(/C=C/c2nc3sccn3c(=O)c2-c2ccc(OC(F)(F)F)cc2)c1OC1CCCC1` [Example 68] were, in that order, 75.8%, 83.6% and less than 250 nM.
In the case of `COc1cccc(/C=C/c2nc3sccn3c(=O)c2-c2ccc(OC(F)(F)F)cc2)c1O` [Example 69, 7-[(E)-2-(2-Hydroxy-3-methoxyphenyl)-1-ethenyl]-6-[4-(trifluoromethoxy)phenyl]-5H-[1,3]thiazolo[3,2-a]pyrimidin-5-one], the inhibition at 1 µM was determined as 51.5% and the inhibition at 10 µM was found to be 91.5%.
Turning to `CCOc1cccc(/C=C/c2nc3sccn3c(=O)c2-c2ccc(OC(F)(F)F)cc2)c1OCC1CC1` [Example 61, 7-{(E)-2-[2-(Cyclopropylmethoxy)-3-ethoxyphenyl}-1-ethenyl]-6-(4-trifluoromethoxy-phenyl)-5H-[1,3]thiazolo[3,2-a]pyrimidin-5-one], the inhibition at 1 µM was 22.7% and the inhibition at 10 µM came out at 60.6%.
The like results for `COc1cccc(/C=C/c2nc3n(C)c4ccccc4n3c(=O)c2-c2ccc(OC(F)(F)F)cc2)c1OCC1CC1` [Example 98, 2-[(E)-2-(2-Cyclopropylmethoxy-3-methoxyphenyl)vinyl]-3-(4-trifluoromethoxyphenyl)-10-methylpyrimido[1,2-a]benzimidazol-4(10H)-one] were, in that order, 23% and 30%.
For `CCCOc1cccc(/C=C/c2nc3sccn3c(=O)c2-c2ccc(OC(F)(F)F)cc2)c1OCC1CC1` [Example 66, 7-{(E)-2-[2-(Cyclopropylmethoxy)-3-propoxyphenyl}-1-ethenyl]-6-(4-trifluoromethoxy-phenyl)-5H-[1,3]thiazolo[3,2-a]pyrimidin-5-one] the same measures were 23.4% and 34.1%.
The like results for `COc1cccc(/C=C/c2nc3sc(C)c(C)n3c(=O)c2-c2ccc(OC(F)(F)F)cc2)c1OCC1CC1` [Example 77, 7-[(E)-2-(2-Cyclopropylmethoxy-3-methoxyphenyl)-1-ethenyl]-2,3-dimethyl-6-[4-(trifluoromethoxy)phenyl]-5H-[1,3]thiazolo[3,2-a]pyrimidin-5-one] were, in that order, 24.7% and 44%.
Consider `CCOCCOc1c(/C=C/c2nc3sc4ccccc4n3c(=O)c2-c2ccc(C(F)(F)F)cc2)cccc1OC` [Example 93, 2-{(E)-2-[(2-Ethoxyethoxy)-3-methoxyphenyl]-1-ethenyl}-3-(4-trifluoromethyl-phenyl)-4H-benzo[4,5][1,3]thiazolo-[3,2-a]pyrimidin-4-one], for which the “Percentage inhibition at 1.0 μM” value came to 6.53% and the “Percentage inhibition at 10.0 μM” value is listed as 40.18%.
As to `COc1cccc(/C=C/c2nc3sccn3c(=O)c2-c2ccc(C(C)=O)cc2)c1OCC1CC1` [Example 5], the “Percentage inhibition at 1.0 μM” value is listed as 60.3% and the “Percentage inhibition at 10.0 μM” value is recorded as 95.1%.
Consider `COc1cccc(/C=C/c2nc3sccn3c(=O)c2-c2ccc(C(F)(F)F)cc2)c1OCCC(C)C` [Example 28, 7-[(E)-2-(2-Isopentyloxy-3-methoxyphenyl)-1-ethenyl]-6-[4-(trifluoromethyl)phenyl]-5H-[1,3]thiazolo[3,2-a]pyrimidin-5-one], for which the inhibition at 1 µM came to 59.7% and the inhibition at 10 µM amounted to 85.3%.
The like results for `COc1cccc(/C=C/c2nc3sccn3c(=O)c2-c2ccc(N(C)C)cc2)c1OCC(C)(C)C` [Example 42, 6-(4-Dimethylaminophenyl)-7-[(E)-2-(3-methoxy-2-neopentyloxy)phenyl-1-ethenyl]-5H-[1,3]thiazolo[3,2-a]pyrimidin-5-one] were, in that order, 62.7% and 78.5%.
In the case of “7-[(E)-2-{(3-Cyanopropoxy)-3-methoxy}phenylvinyl]-6-[4-(trifluoromethoxy)phenyl]-5H-[1,3]thiazolo[3,2-a]pyrimidin-5-one [Example 74]”, the “Percentage inhibition at 1.0 μM” value turned out to be 30.20% and the “Percentage inhibition at 10.0 μM” value stood at 86.42%.
Turning to `COc1cccc(/C=C/c2nc3sccn3c(=O)c2-c2ccc(OC(F)(F)F)cc2)c1OCCC(F)(F)F` [Example 70, 7-[(E)-2-{3-Methoxy-2-(2-trifluoromethylethoxy)phenyl}-1-ethenyl]-6-[4-(trifluoromethoxy)phenyl]-5H-[1,3]thiazolo[3,2-a]pyrimidin-5-one], the inhibition at 1 µM turned out to be 90.8%, the inhibition at 10 µM came to 97.9% and the IC50 was less than 250 nM.
As for `O=c1c(-c2ccc(C(F)(F)F)cc2)c(/C=C/c2cccnc2)nc2sccn12` [Example 39, 7-[(E)-2-Pyridin-3-ylvinyl]-6-[4-(trifluoromethyl)phenyl]-5H-[1,3]thiazolo[3,2-a]pyrimidin-5-one], the inhibition at 1 µM worked out at 4.11% and the inhibition at 10 µM turned out to be 15.2%.
On to `COc1cccc(/C=C/c2nc3sccn3c(=O)c2-c2ccc(OC(F)(F)F)cc2)c1OCC1CCC1` [Example 67, 7-[(E)-2-{2-Cyclobutylmethoxy-3-methoxyphenyl}-1-ethenyl]-6-[4-(trifluoromethoxy)-phenyl]-5H-[1,3]thiazolo[3,2-a]pyrimidin-5-one], for which the inhibition at 1 µM was 80.2%, the inhibition at 10 µM was determined as 92.2% and the IC50 was less than 250 nM.
The like results for `COc1cccc(/C=C/c2nc3sccn3c(=O)c2-c2ccc(C#N)cc2)c1OCC1CCC1` [Example 17, 4-{7-[(E)-2-(2-Cyclobutylmethoxy-3-methoxy)phenyl-1-ethenyl]-5-oxo-5H-[1,3]-thiazolo[3,2-a]pyrimidin-6-yl}benzonitrile] were, in that order, 73%, 91.1% and less than 250 nM.
Turning to `COc1cccc(/C=C/c2nc3sccn3c(=O)c2-c2ccc(C(F)(F)F)cc2)c1OC1CCCC1` [Example 35, 7-[(E)-2-(2-Cyclopentyloxy-3-methoxyphenyl)-1-ethenyl]-6-[4-(trifluoromethyl)phenyl]-5H-[1,3]thiazolo[3,2-a]pyrimidin-5-one], the inhibition at 1 µM amounted to 29.4% and the inhibition at 10 µM stood at 68.5%.
The like results for `COc1cccc(/C=C/c2nc3sc4ccccc4n3c(=O)c2-c2ccc(OC(F)(F)F)cc2)c1OCC1CC1` [Example 95] were, in that order, 10.9% and 23.7%.
With `CCCOc1c(/C=C/c2nc3sccn3c(=O)c2-c2ccc(OC(F)(F)F)cc2)cccc1OC` [Example 54, 7-[(E)-2-(3-Methoxy-2-propoxyphenyl)-1-ethenyl]-6-[4-(trifluoromethoxy)phenyl]-5H-[1,3]thiazolo[3,2-a]pyrimidin-5-one], the inhibition at 1 µM worked out at 72.8%, the inhibition at 10 µM is 95.3% and the half-inhibitory concentration (IC50) was less than 250 nM.
Take `COc1cccc(/C=C/c2nc3sccn3c(=O)c2-c2cccc(C(F)(F)F)c2)c1OCC1CC1` [Example 40, 7-[(E)-2-(2-Cyclopropylmethoxy-3-methoxyphenyl)-1-ethenyl]-6-[3-(trifluoromethyl)phenyl]-5H-[1,3]thiazolo[3,2-a]pyrimidin-5-one]: the inhibition at 1 µM was found to be 4.6% and the inhibition at 10 µM amounted to 31.3%.
